These results are taken from patent US8466177B2 (priority 2007, dated 2013).

Assay [1] has as its system influenza virus (A/Udorn/72, H3N2). The class given is cell-based. Particulars: 10 μM.
The test system of the next assay is A/Udorn/72, H3N2. In kind it is cell-based, influenza virus. The following applies: 50 nM.
Another assay has as its system B/Lee/40 (type B). Description: microbe, parasite or virus in culture. Particulars: Influenza B virus, MDCK. In kind it is cell-based.
Another assay concerns A/Udorn/72 (H3N2). Description: microbe, parasite or virus in culture. The class given is cell-based, influenza virus.
In the next assay the test system is A/PR/8/34 (H1N1). Kind of assay: microbe, parasite or virus in culture. The class given is cell-based. Particulars: Influenza A virus, MDCK.
The test system of a further assay is A/Aichi/68 (H3N2). Description: microbe, parasite or virus in culture. The class given is cell-based. Particulars: Influenza A virus, H3N2, MDCK.
Assay [2] deals with recombinant influenza virus hemagglutinin (A/Wyoming/3/03). In kind it is biochemical. Particulars: 5 μM.

pEC50: −log10 of the molar value. Like-named read-outs stand apart in the source and are kept apart here.

Turning to `O=C1/C(=C/c2ccc(-c3ccc(F)cc3)o2)SC(=S)N1C1CCCCC1` [A1, (Z)-3-Cyclohexyl-5-{[5-(4-fluorophenyl)furan-2-yl]-methylene}-2-thioxothiazolidin-4-one], in assay [1], the “effect on membrane fusion” value is “inhibitory effects”. For the same compound, the “virus yield, cell cultures treated after inoculation” value in the assay on A/Udorn/72, H3N2 was “decreased virus yield”. Further, the pEC50 was 9.00 in the assay with B/Lee/40 (type B); 9.40 in the assay on A/Udorn/72 (H3N2); at least 9.40 with A/Udorn/72 (H3N2) (Influenza A virus, H3N2, MDCK); 9.22 in the assay with A/PR/8/34 (H1N1); 9.00 in the assay on A/Aichi/68 (H3N2). The “effect on HA stability (trypsin digestion)” value in assay [2] is listed as “destabilization effects”.

Consider `Cc1ccc(-c2ccc(/C=C3\SC(=S)N(C4CCCCCCC4)C3=O)o2)cc1` [A17, (Z)-3-cyclooctyl-5-{[(4-methylphenyl)furan-2-yl]methylene}-2-thioxothiazolidin-4-one], for which, in the assay with A/Udorn/72, H3N2, the “virus yield, cell cultures treated after inoculation” value is recorded as “decreased virus yield”.

Broadly, the pEC50 is the negative decadic logarithm of the EC50, by convention in mol/L. Read a high pEC50 as a low EC50.
